# Measurements published in patent US20240269138A1, “MMP13 AS A THERAPEUTIC TARGET FOR ALLERGIC INFLAMMATORY DISEASES” (The General Hospital Corporation, priority 2021, published 2024).
# Experiments:
# [1] = test system: HDM-induced allergic airway inflammation; assay: HDM-induced allergic airway inflammation (mouse model of asthma), intraperitoneal inhibitor; format: in vivo, C57BL/6 mice; conditions: for total BAL leukocyte numbers / histologically detectable changes in the lung tissue sections: 50 mg/kg intraperitoneally on days 19 and 20; for total BAL leukocyte numbers: BAL on day 21, Diff-Quik; for histologically detectable changes in the lung tissue sections: lungs on day 21, H&E and PAS; for effectiveness compared with dexamethasone: inhibitor 50 mg/kg vs dexamethasone 1 mg/kg, intraperitoneally, days 19 and 20; for inflammation in a mouse model of asthma (overall): systemic (intraperitoneal) administration
# Protocol: C57BL/6 mice were subjected to intranasal instillation of control PBS or HDM as in FIGS. 5A-5D. Vehicle (DMSO), dexamethasone (1 mg/kg), and the MMP13 inhibitors CL82198 (MMP13i Inh1; 50 mg/kg) and DB04760 (CAS 544678-85-5; MMP13i Inh2; 50 mg/kg) were administered intraperitoneally (n=3, 3, 4, and 2 per group, respectively) on days 19 and 20. BAL and lungs of PBS- and HDM-challenged mice were prepared for analysis as in FIGS. 5A-5D. (FIG. 6A and FIG. 6B) BAL cells were analyzed by Diff-Quik staining (FIG. 6A). The numbers of total BAL cells and the indicated types of BAL cells were determined from Diff-Quik-stained cell images and are shown as means±SEM (FIG. 6B). *, P<0.05 (two-tailed unpaired Student's t test). (FIG. 6C and FIG. 6D) Lung sections were analyzed by H&E staining (FIG. 6C) and PAS staining (FIG. 6D). Mice were subjected to intranasal instillation of HDM (D. farinae) extract (XPB81D3A25; Stallergenes Greer) in phosphate-buffered saline (PBS) on days 0, 2, 5, 7, 9, 12, 14, 16 and 19. The amounts of HDM extract administered range between 1 μg and 10 μg per animal; the administered amount for each batch was determined by seeking a condition for BAL eosinophils of 2-5×10^5 cells. PBS was instilled as a control. Dexamethasone and MMP13 inhibitors were injected intraperitoneally (1 mg/kg and 50 mg/kg, respectively) on days 19 and 20. BAL and lungs of PBS- and HDM-challenged mice were prepared on day 21 for analysis. Mouse skin and lung tissues were fixed with formalin and embedded in paraffin. Tissue sections were analyzed by hematoxylin and eosin (H&E) and Periodic acid-Schiff (PAS) staining or by immunofluorescence analysis using primary antibodies in conjunction with Alexa Fluor 594- or fluorescein isothiocyanate-conjugated secondary antibodies (Thermo Fisher Scientific) and Hoechst 33342 (Sigma). Primary antibodies specific to the following antigens were used in immunofluorescence analysis after 1:100 to 1:200 dilution: CD3 (SP7; Abcam), MBP (2000-124; Mayo Clinic), and MMP13 (ab39012; Abcam). Cytospins of BAL cells were analyzed by Diff-Quik staining. Data values are expressed as means±SEM. P values were obtained with the unpaired two-tailed Student t test with Welch's correction.
# [2] = molecular target: MMP13 (Homo sapiens, UniProt P45452); conditions: fill the S1′ pocket of MMP13 but cannot fit those of other MMPs; cited from earlier work
# [3] = test system: OVA-induced allergic dermatitis; assay: OVA-induced allergic dermatitis (mouse model of atopic dermatitis), topical inhibitor; format: in vivo, C57BL/6 mice; conditions: for inflammation in a mouse model of atopic dermatitis (overall): topical administration; for OVA-induced dermal thickening (edema formation) / OVA-induced epidermal thickening / OVA-induced T cell infiltration (CD3+ T cell density) / OVA-induced eosinophil infiltration (MBP+ eosinophil density): topical, 125 μl of 50 mM solution per cm^2 concurrently with OVA challenge, skin on day 21; for OVA-induced dermal thickening (edema formation) / OVA-induced epidermal thickening: H&E; for OVA-induced T cell infiltration (CD3+ T cell density) / OVA-induced eosinophil infiltration (MBP+ eosinophil density): immunostaining
# Protocol: C57BL/6 mice were sensitized to OVA and challenged with control SAL or OVA as in FIGS. 1A-1G. Vehicle (water), the p38α inhibitor SCIO469 (p38αi), and the MMP13 inhibitor DB04760 (CAS 544678-85-5; MMP13i) were administered topically to the challenged skin site (125 μl of 50 mM solution per cm^2; n=10 per group) concurrently with SAL or OVA. SAL- and OVA-challenged skin was prepared for analysis as in FIGS. 1A-1G. (FIGS. 4A-4C) Skin sections were analyzed by H&E staining (FIG. 4A). Epidermal and dermal thickness (FIG. 4B and FIG. 4C, respectively) was determined from H&E-stained skin images and are shown as means±SEM. *, P<0.05; **, P<0.01 (two-tailed unpaired Student's t test). (FIGS. 4D-4G) Skin sections were analyzed by immunostaining/counterstaining for the indicated molecules (FIG. 4D and FIG. 4F). Solid and dotted line, epidermal margins and the epidermal-dermal boundary, respectively. CD3^+ T cell and MBP^+ eosinophil density (FIG. 4E and FIG. 4G, respectively) was determined on the basis of fluorescence signal-bearing cell numbers per image field and is shown as means SEM. **, P<0.01; ***, P<0.001 (two-tailed unpaired Student's t test). For allergen sensitization, OVA (Sigma) and alum adjuvant (Imject; Thermo Fisher Scientific) were combined in saline (0.9% sodium chloride; SAL) to constitute an inoculum (1 mg/ml and 100 mg/ml, respectively) and injected intraperitoneally into mice (200 μl per animal) on day 0 and 7. To elicit dermatitis in OVA-sensitized mice, shaved dorsal skin was subjected to 15 strokes of tape stripping (Tegaderm; 3M) and then challenged with OVA on days 14, 16 and 19. For this epicutaneous challenge, 100 μl of OVA (1 mg/ml in SAL) was applied to cotton gauze (1 cm×1 cm) placed on tape-stripped skin; 100 μl of SAL was applied as a control. For topical administration of p38α and MMP13 inhibitors, 125 μl of inhibitor solution (50 mM) was applied to skin sites concurrently with SAL or OVA. Challenged skin was sampled on day 21 for analysis. Mouse skin and lung tissues were fixed with formalin and embedded in paraffin. Tissue sections were analyzed by hematoxylin and eosin (H&E) and Periodic acid-Schiff (PAS) staining or by immunofluorescence analysis using primary antibodies in conjunction with Alexa Fluor 594- or fluorescein isothiocyanate-conjugated secondary antibodies (Thermo Fisher Scientific) and Hoechst 33342 (Sigma). Primary antibodies specific to the following antigens were used in immunofluorescence analysis after 1:100 to 1:200 dilution: CD3 (SP7; Abcam), MBP (2000-124; Mayo Clinic), and MMP13 (ab39012; Abcam). Cytospins of BAL cells were analyzed by Diff-Quik staining. Data values are expressed as means±SEM. P values were obtained with the unpaired two-tailed Student t test with Welch's correction.
structure (smiles),measurement,setting,value
O=C(NCCCCN1CCOCC1)c1cc2ccccc2o1 [CL82198],total BAL leukocyte numbers,[1],substantially reduced
same,histologically detectable changes in the lung tissue sections,[1],prevented
same,effectiveness compared with dexamethasone,[1],superior to that of dexamethasone
same,inflammation in a mouse model of asthma (overall),[1],suppresses inflammation
same,selectivity for MMP13 over other MMPs,[2],almost exclusively selective for MMP13
Cc1cc(CNC(=O)c2cc(C(=O)NCc3ccc(F)c(C)c3)ncn2)ccc1F [DB04760],total BAL leukocyte numbers,[1],substantially reduced
same,histologically detectable changes in the lung tissue sections,[1],prevented
same,effectiveness compared with dexamethasone,[1],superior to that of dexamethasone
same,inflammation in a mouse model of asthma (overall),[1],suppresses inflammation
same,inflammation in a mouse model of atopic dermatitis (overall),[3],suppresses inflammation
same,OVA-induced dermal thickening (edema formation),[3],trend of decrease
same,OVA-induced epidermal thickening,[3],significantly reduced
same,OVA-induced T cell infiltration (CD3+ T cell density),[3],significantly reduced
same,OVA-induced eosinophil infiltration (MBP+ eosinophil density),[3],trend of decrease
C[C@@H]1CN(Cc2ccc(F)cc2)[C@@H](C)CN1C(=O)c1cc2c(C(=O)C(=O)N(C)C)cn(C)c2cc1Cl [SCIO469],inflammation in a mouse model of atopic dermatitis (overall),[3],suppresses inflammation
same,OVA-induced dermal thickening (edema formation),[3],significant decrease
same,OVA-induced epidermal thickening,[3],significant decrease
same,OVA-induced T cell infiltration (CD3+ T cell density),[3],significant decrease
same,OVA-induced eosinophil infiltration (MBP+ eosinophil density),[3],significant decrease
